# What was measured:
# [1] = system: hematopoietic recovery after cyclophosphamide; experiment: Surfactants, hematopoietic recovery after cyclophosphamide (Example 58); format: in vivo, Balb/C mice; conditions: day 7
# Protocol: Twenty-four hours later and each day thereafter for a total of 6 days, mice were divided into seven groups and given a 0.4 ml i.p. injection of either physiological saline (controls), Tween 80 at each of three concentrations (0.02%, 0.2% and 1%) or octanoylguanosine (50 mg/kg/dose) in three different concentrations of Tween 80 (0.02%, 0.2% and 1%). On day 7 following CP administration all 9 animals from each of the […] were bled and then sacrificed by cervical dislocation. Spleens were removed and weighed, and complete blood cell counts performed.
# [2] = system: hematopoietic recovery after cyclophosphamide; experiment: Histological examination of spleens and blood counts after cyclophosphamide (Example 46); format: in vivo, Balb/C mice; conditions: day 7
# Protocol: Cyclophosphamide (CP) (275 mg/kg, i.p.) was administered to 30 Balb/C female mice weighing approximately 20 grams each. Twenty-four hours later and each day thereafter for a total of 6 days, mice were given a 0.4 ml i.p. injection of either physiological saline (controls), Tween 80 (0.5%), or octanoylguanosine (5.0 μmoles/mouse/day in 0.5% Tween 80). On day 7 following CP administration all 10 animals from each of the 3 groups were bled and then sacrificed by cervical dislocation. Spleens were removed, weighed, and fixed in 10% formalin for later histological examination. Complete blood cell counts were performed on the collected blood.
# [3] = system: hematopoietic recovery after cyclophosphamide; experiment: Hematopoietic recovery after cyclophosphamide, acyl chain length (Example 38); format: in vivo, Balb/C mice; conditions: day 7; guanosine 5, acyl derivatives 2.5 μmoles/mouse/day i.p.
# Protocol: Cyclophosphamide (CP) (275 mg/kg, i.p.) was administered to 70 Balb/C female mice weighing approximately 20 grams each. Twenty-four hours later and each day thereafter for a total of 6 days, mice were given a 0.4 ml i.p injection of either physiological saline (controls), Tween 80 (0.2%), guanosine (5 μmoles/mouse/day in 0.2% Tween 80), or 2.5 μmoles per mouse per day of one of the following acylated derivatives of guanosine in 0.2% Tween 80: triacetylguanosine, octanoylguanosine, lauroylguanosine, or palmitoylguanosine. On day 7 following CP administration all 10 animals from each of the 7 groups were bled, and then sacrificed by cervical dislocation. Spleens were removed and weighed, and complete blood counts performed.
# [4] = system: hematopoietic recovery after cyclophosphamide; experiment: Dose-response, hematopoietic recovery after cyclophosphamide (Example 45); format: in vivo, Balb/C mice
# Protocol: Cyclophosphamide (CP) (275 mg/kg, i.p.) was administered to 45 Balb/C female mice weighing approximately 20 grams each. Twenty-four hours later and each day thereafter for a total of 6 days, mice were given a 0.4 ml i.p. injection of either physiological saline (controls), Tween 80 (0.5%), or one of three different doses of octanoylguanosine ([…]). On day 7 following CP administration all 9 animals from each of the […] were bled and then sacrificed by cervical dislocation. Spleens were removed and weighed, and complete blood cell counts performed.
# [5] = system: hematopoietic recovery after cyclophosphamide; experiment: Hematopoietic recovery after cyclophosphamide (Example 59); format: in vivo, Balb/C mice; conditions: days 5 and 7; 25 mg/kg/day i.p.
# Protocol: Cyclophosphamide (CP) (275 mg/kg, i.p.) was administered to 28 Balb/C female mice weighing approximately 20 grams each. Twenty-four hours later and each day for 4 days thereafter, mice were given a 0.4 ml i.p. injection of either physiological saline (controls) or palmitoyl-8-aminoguanosine (25 mg/kg/day in 0.2% Tween 80). On days 5 and 7 following CP administration 7 animals from each of the 2 groups were bled and then were sacrificed by cervical dislocation. Spleens were removed and weighed, and complete blood cell counts performed.
# [6] = system: hematopoietic recovery after cyclophosphamide; experiment: Hematopoietic recovery after cyclophosphamide (Example 37); format: in vivo, Balb/C mice; conditions: 5 μmoles/mouse/day i.p. 6 days; day 7; vs saline
# Protocol: Twenty-four hours later and each day thereafter for a total of 6 days, mice were given a 0.4 ml i.p. injection of either physiological saline (controls), guanine (5 μmoles/mouse/day), or guanosine (5 μmoles/mouse/day). On day 7 all 10 mice in each of the three groups were bled, and then sacrificed by cervical dislocation. Spleens were removed and weighed, and complete blood cell counts performed.
# [7] = system: human myeloid leukemia cell line (HL-60); conditions: HL-60 with inducing agents; cited from earlier work
# leukocytes = conditions: 100 mg i.p.; after 10 hours and for 24 hours thereafter; cited from earlier work
# [8] = system: hematopoietic recovery from fluorouracil; experiment: Pretreatment, hematopoietic recovery from fluorouracil (Example 57); format: in vivo, Balb/C mice
# Protocol: Twenty-eight female Balb/C mice weighing approximately 20 grams each received a 0.4 ml i.p. injection of either physiological saline (controls), or palmitoyldeoxyguanosine (1 μmole/mouse) daily for three days. On the fourth day 5-flourouracil (5-FU) (150 mg/kg, i.p.) was administered to all 28 of the animals. On days 5, 8 and 11 following 5-FU administration 4 (day 5) or 5 (days 8 and 11) animals from both groups were bled and then sacrificed by cervical dislocation. Spleens were removed and weighed, and complete blood cell counts performed.
# [9] = system: hematopoietic recovery after cyclophosphamide; experiment: Hematopoietic recovery after cyclophosphamide (Example 51); format: in vivo, Balb/C mice; conditions: day 5; 2 μmoles/mouse
# Protocol: Cyclophosphamide (CP) (275 mg/kg, i.p.) was administered to 88 Balb/C female mice weighing approximately 20 grams each. Twenty-four hours later and each day thereafter mice were given a 0.4 ml i.p. injection of either Tween-80 (0.2%) (controls), 3'-O-palmitoyldeoxyguanosine (2 μmoles/mouse), butyryldeoxyguanosine (2 μmoles/mouse), palmitoyl-N-isobutyryldeoxyguanosine (2 μmoles/mouse), lauryldeoxyguanosine (2 μmoles/mouse), octanoyldeoxyguanosine (2 μmoles/mouse), and palmitoyldeoxyguanosine (2 μmoles/mouse). On days 5 and 7 following CP administration 6 or 7 animals in each of the 7 groups were bled and then sacrificed by cervical dislocation. Spleens were removed and weighed, and complete blood cell counts performed.
# [10] = system: Interleukin-3 dependent bone marrow cells; conditions: 10 micrograms per milliliter
# Protocol: Bone marrow cells were obtained by flushing the femurs of three male B6D2F1 mice. The cells were plated at 5.0×10^5 /ml in MEM plus 10% fetal calf serum and 25 Units/ml of recombinant IL-3 for 24-48 hours. Non-adherent cells were then separated from adherent cells and maintained for an additional twelve days. IL-3 was washed from cells, and cells were plated in MEM plus 10% fetal calf serum in the presence or absence of IL-3 and with or without the addition of palmitoyldeoxyguanosine (10 micrograms per milliliter) or deoxyguanosine (10 micrograms per milliliter). Cells were counted using the trypan blue exclusion method, and the percent of dead cells (trypan blue positive) was determined at 24, 40, 60 and 84 hours following the wash.
# [11] = system: hematopoiesis in normal mice; experiment: Hematopoiesis in normal mice (Example 56); format: in vivo, Balb/C mice; conditions: day 5, 2.6 μmoles/mouse, 4 days
# Protocol: Normal Balb/C female mice weighing approximately 20 grams each were given a daily 0.4 ml i.p. injection of either physiological saline (controls), palmitoylguanosine (2.6 μmoles/mouse), palmitoyldeoxyguanosine (2.6 μmoles/mouse), monopalmitoylguanosine 2',3'-acyclic dialcohol (2.6 μmoles/mouse), and palmitoyl-8-bromoguanosine (2.6 μmoles/mouse) for 4 days. On the fifth day all 3 animals in each of the 5 groups were bled and then sacrificed by cervical dislocation. Spleens were removed and weighed, and complete blood cell counts performed. Femoral bone marrow from each mouse was collected and a differential cell count performed on marrow smears.
# [12] = system: hematopoietic recovery after cyclophosphamide; experiment: Dose-response, hematopoietic recovery after cyclophosphamide (Example 52); format: in vivo, Balb/C mice; conditions: days 5 and 7; 0.2-2.0 μmoles/mouse, except 0.2 on day 5
# Protocol: (§1) Cyclophosphamide (CP) (275 mg/kg, i.p.) was administered to 85 Balb/C female mice weighing approximately 20 grams each. Twenty-four hours later and each day thereafter mice were given a 0.4 ml i.p. injection of either physiological saline (controls), or palmitoyldeoxyguanosine at one of four different doses: 0.2, 0.4, 1.0 or 2.0 μmoles/mouse). On days 5 and 7 following CP administration 9 and 8 animals, respectively, in each of the 5 groups were bled and then sacrificed by cervical dislocation. Spleens were removed and weighed, and complete blood cell counts performed.
# [13] = system: hematopoietic recovery after cyclophosphamide; experiment: Dose-response, hematopoietic recovery after cyclophosphamide (Example 54); format: in vivo, Balb/C mice
# Protocol: Cyclophosphamide (CP) (275 mg/kg, i.p.) was administered to 112 Balb/C female mice weighing approximately 20 grams each. Twenty-four hours later and each day thereafter mice were given a 0.4 ml i.p. injection of either physiological saline (controls), or palmitoyldeoxyguanosine at one of six different doses: 0.04, 0.08, 0.2, 0.4, 0.6 or 0.8 μmoles/mouse. On days 5 and 7 following CP administration 8 animals from each of the 7 groups were bled and then sacrificed by cervical dislocation. Spleens were removed and weighed, and complete blood cell counts performed.
# [14] = system: hematopoietic recovery after cyclophosphamide; experiment: Comparative dose-response, hematopoietic recovery after cyclophosphamide (Example 53); format: in vivo, Balb/C mice
# Protocol: as §1, with “to 96” for “to 85”, “(controls), palmitoylguanosine” for “(controls), or palmitoyldeoxyguanosine”, “2.0 μmoles/mouse), or palmitoyldeoxyguanosine at a dose of 1.0 μmoles/mouse.” for “2.0 μmoles/mouse).”, “administration” for “administration 9 and”, “8 animals from” for “8 animals, respectively, in”, “the 6” for “the 5”
# [15] = system: hematopoietic recovery after cyclophosphamide; experiment: Recovery of blood cell counts in rats after cyclophosphamide (Example 55); format: in vivo, F344 rats
# Protocol: Cyclophosphamide (CP) (40 mg/kg, i.p.) was administered to 16 F344 male rats weighing approximately 200 grams each. Twenty-four hours later and each day thereafter rats were given a 0.5 ml i.p. injection of either physiological saline (controls), or palmitoyldeoxyguanosine at a dose of […]. On days 5, 7 and 10 following CP administration all 8 animals from both groups were bled and complete blood cell counts performed. On day 10 all of the rats were sacrificed and their spleens removed and weighed.
# [16] = day 5, palmitoylguanosine 2.0, palmitoyldeoxyguanosine 1.0 μmoles/mouse
# [17] = day 7, palmitoylguanosine 1.0 and 2.0, palmitoyldeoxyguanosine 1.0 μmoles/mouse
smiles,measurement,setting,value
CCCCCCCC(=O)OC[C@H]1O[C@@H](n2cnc3c(=O)[nH]c(N)nc32)[C@H](O)[C@@H]1O,neutrophil counts,"[1]; 50 mg/kg in 0.02% and 0.2% Tween 80, vs saline",significantly different from controls
same,neutrophil counts,[1]; 50 mg/kg in 0.2% vs in 0.02% Tween 80,significantly higher
same,spleen weight,"[2]; Tween 80 0.5%, octanoylguanosine 5.0 μmoles/mouse/day",significantly greater
same,Neutrophils,[2]; vs control or Tween 80,significantly greater numbers
same,peripheral white blood cells (WBC),[2]; vs control or Tween 80,significantly greater numbers
same,histological examination of spleens,[2]; vs saline and Tween 80,much greater lymphopoiesis (increased white pulp) and myelopoiesis (increased red pulp)
same,spleen weight,[3],significantly larger spleens
same,spleen weight,"[4]; day 7, 0.5, 2.5 or 5 μmoles/mouse/day, vs controls and Tween 80",significantly larger spleens
same,spleen size,"[4]; day 7, highest dose (10 μmoles)",largest spleens
same,total number of leukocytes,"[4]; day 7, vs control",significantly increased above control values in a dose-dependent manner
same,total number of neutrophils,"[4]; day 7, vs control",significantly increased above control values in a dose-dependent manner
same,accelerating regeneration of hematopoiesis,[4]; middle dose 2.5 μmoles,nearly as effective as the highest dose
CCCCCCCCCCCCCCCC(=O)OC[C@H]1O[C@@H](n2c(N)nc3c(=O)[nH]c(N)nc32)[C@H](O)[C@@H]1O [palmitoyl-8-aminoguanosine],Neutrophils,[5],significantly elevated
same,spleen weight,[5],significantly elevated
Nc1nc2c(ncn2[C@@H]2O[C@H](CO)[C@@H](O)[C@H]2O)c(=O)[nH]1 [guanosine],spleen weight,[3],No significant difference
same,Neutrophils,[6],significantly more
same,spleen weight,[6],significantly heavier spleens
same,total white blood cells,[6],significantly more
same,effect on induced maturation of HL-60 cells,[7],prevented their induced maturation into functional neutrophils
same,"leukocyte counts, leukocytosis",leukocytes,"11,000 per mm^3"
CCCCCCCCCCCCCCCC(=O)OC[C@H]1O[C@@H](n2cnc3c(=O)[nH]c(N)nc32)C[C@@H]1O [palmitoyldeoxyguanosine],platelet counts,"[8]; day 5, 1 μmole/mouse, 3 days before 5-FU",significantly elevated
same,platelet counts,[8]; day 8,significantly higher
same,spleen weight,[8]; day 8,significantly higher
same,total neutrophil counts,[8]; day 8,significantly higher
same,lymphocyte counts,[8]; day 11,significantly higher
same,platelet counts,[8]; day 11,significantly higher
same,spleen weights,[8]; day 11,significantly higher
same,total neutrophil counts,[8]; day 11,significantly higher
same,total white blood cell counts,[8]; day 11,significantly higher
same,spleen weight,[9],significantly elevated
same,total neutrophil counts,[9],significantly elevated
same,white blood cell counts,[9],significantly elevated
same,prevention of apoptotic cell death due to IL-3 deprivation,[10],significantly reduced the percentage of dead cells
same,spleen weight,[11],significantly elevated
same,number of myelocytes,[11]; femoral bone marrow,significantly greater
same,spleen weight,[12],significantly elevated
same,total neutrophil counts,[12],significantly elevated
same,white blood cell counts,[12],significantly elevated
same,spleen weight,"[13]; day 5, 0.2 μmoles/mouse or greater",significantly elevated
same,white blood cell counts,"[13]; day 5, 0.4 μmoles/mouse or greater",significantly elevated
same,white blood cell counts,"[13]; day 7, all doses",statistically significant differences were seen at all doses
same,spleen weight,"[13]; day 7, all doses except 0.04 μmoles/mouse",significantly elevated
same,total neutrophil counts,"[13]; days 5 and 7, all 6 doses",significantly elevated
same,spleen weight,[14]; [16],significantly elevated
same,total neutrophil counts,[14]; [16],significantly elevated
same,white blood cell counts,[14]; [16],significantly elevated
same,spleen weight,[14]; [17],significantly elevated
same,total neutrophil counts,[14]; [17],significantly elevated
same,white blood cell counts,[14]; [17],significantly elevated
same,relative potency in elevating spleen weight and cell counts,[14]; vs palmitoylguanosine,more potent in elevating these parameters than the same or even a 2-fold greater dose of palmitoylguanosine
same,Lymphocytes,"[15]; day 10, i.p.",significantly elevated
same,Platelets,"[15]; day 10, i.p.",significantly elevated
same,spleen weight,"[15]; day 10, i.p.",significantly elevated
same,total neutrophil counts,"[15]; days 5, 7 and 10, i.p.",significantly elevated
same,white blood cell counts,"[15]; days 5, 7 and 10, i.p.",significantly elevated
